Data on 13 molecules can be found in publication PMC10082729, “First study on in vitro antiviral and virucidal effects of flavonoids against feline infectious peritonitis virus at the early stage of infection” (Veterinary World, 2023).

For one data set, the system named is Influenza A virus. The following applies: in vitro; cited from earlier work.
A short description of a further data set: in vitro. The settings on record: cat.
In the next data set the test system is FIPV 3CL^pro. The settings on record: cited from earlier work.
Data set [1] relates to Herpes simplex virus type 1. The following applies: in vitro; cited from earlier work.
The test system of another data set is Enterovirus A71. Set-up: method as in PMID 19537794. The following applies: in vitro, at 10 µM; cited from earlier work.
Data set [2] has as its system Human immunodeficiency virus reverse transcriptase. Set-up: method as in PMID 21730371. The following applies: in vitro; cited from earlier work.
For data set [3], the system named is FIPV. Kind of data set: Post-viral entry assay, viral load by RT-qPCR. It is filed as cell-based, feline infectious peritonitis virus. The following applies: Alphacoronavirus 1, read-out: inhibition of viral copy numbers. The method, then:
(§1) Crandell–Rees feline kidney cells were seeded into a 96-well plate at 1.8 × 10^4 cells/well and cultured in MEM containing 7% FBS. Pre-compound, attachment, penetration, post-viral entry, and virucidal assays were performed based on each step of viral infection. […] For the antiviral activity assay, FIPV was used at 50 TCID50/well in all experiments. Crandell–Rees feline kidney cells were inoculated with FIPV and treated with 0.1% DMSO as vehicle control. GC376 (TargetMol®, Wellesley Hills, MA, USA) was used as the FIPV-specific drug control. Three experiments were performed in duplicate wells for each compound.
To determine whether the compounds could inhibit viral replication and translation in the host cells after infection, CRFK cells were inoculated with FIPV at 37°C for 2 h for viral adsorption.
Intracellular and extracellular FIPV from infected CRFK cells was determined using RT-qPCR, as described. […] A standard curve of viral copy numbers was generated from the plasmid containing the FIPV 3′UTR sequence by 10-fold serially diluting the plasmid from […] plasmid molecules/μL and using it for viral load quantification. Quantitative polymerase chain reaction was performed from two biological replicates and three independent experiments were performed.

The test system of a further data set is FMDV 3C^pro. The following applies: cited from earlier work.
In data set [4] the test system is Foot-and-mouth disease virus. The settings on record: virus and compound cotreated before incubating with cells; read-out: EC50 (virucidal, cotreatment); cited from earlier work.
In a further data set the test system is SARS-CoV-2. The settings on record: in vitro, infected Vero cells; cited from earlier work.
In data set [5] the test system is Foot-and-mouth disease virus. The settings on record: in vitro, post-viral entry; cited from earlier work.
Data set [6] relates to FIPV. Kind of data set: Cotreatment (virucidal) assay, IPMA. The settings on record: Alphacoronavirus 1, FIPV and compound coincubated with cells at 37°C for 2 h, 24 h. It is filed as cell-based, feline infectious peritonitis virus.
For data set [7], the system named is CRFK cells. Kind of data set: Cell cytotoxicity and cell viability (MTS assay). The following applies: 24 h. In general terms: Tetrazolium assays rely on reduction of a dye to a coloured formazan, in cell work by metabolically active cells.
The subject of data set [8] is FIPV. Kind of data set: Post-viral entry assay, FIPV-infected cells by IPMA. The settings on record: for selectivity ratio at 24 h: cat.
Data set [9] has as its system FIPV. The data set can be described thus: Time-of-addition (ToA) assay, RT-qPCR. It is filed as cell-based, feline infectious peritonitis virus. For orientation: Real-time PCR tracks product formation cycle by cycle.
The subject of data set [10] is FIPV. Kind of data set: Virucidal effect at different time points, TCID50 titration. Type of data set: cell-based, feline infectious peritonitis virus. The settings on record: 75 μM, direct incubation with FIPV at 37°C, compared with untreated control. The method, then:
Feline infectious peritonitis virus inoculum at 50 TCID50/mL was directly incubated at the maximum concentrations of the compounds that were non-cytotoxic at 37°C in a 1.5 mL microcentrifuge tube for 0, 15, 30, 60, and 120 min. After the indicated incubation, the mixtures of virus and compounds were immediately subjected to viral titration according to Reed and Muench’s method. Viral titers in compound-treated wells were compared with the untreated control.

Data set [11] deals with SARS-CoV 3a channel protein. The following applies: in vitro; cited from earlier work.
In another data set the test system is Zika virus. Details: method as in PMID 27344138. The settings on record: in vitro; cited from earlier work.
For the next data set, the system named is SARS-CoV-2 3CL^pro. Details: method as in PMID 32963564. The following applies: in vitro; cited from earlier work.
Another data set concerns Hepatitis B virus. The following applies: in vitro; cited from earlier work.
A further data set has as its system SARS-CoV-2 RdRp. The following applies: in vitro; cited from earlier work.
For data set [12], the system named is FIPV. Kind of data set: Pre-compound assay. Type of data set: cell-based, feline infectious peritonitis virus. The settings on record: cells pretreated 2 h, then FIPV 2 h, 24-HPI, crystal violet and IPMA.
Data set [13] concerns FIPV. The data set can be described thus: Attachment assay. The following applies: co-adsorbed at 4°C for 1 h, 24-HPI. It is filed as cell-based, feline infectious peritonitis virus. The method, then:
as §1
To determine whether the compounds could interfere with virus binding to the host cells, CRFK cells in a 96-well plate were prechilled at 4°C for 1 h, and cotreated with the FIPV inoculum and the diluted compounds or controls at 4°C for 1 h to allow virus binding, but not entry to the host cells.
For initial screening, FIPV infection was determined using crystal violet staining for all antiviral assays. Briefly, the supernatants were removed from the compound-treated and FIPV-infected CRFK and control cells, and the cells were fixed with cold methanol at room temperature (25°C) for 30 min. […] Five to ten images of positive FIPV-infected cells were recorded at a magnification of 100× using a phase-contrast inverted microscope (Olympus IX73). […]

Data set [14] has as its system FIPV. Kind of data set: Penetration assay. Type of data set: cell-based, feline infectious peritonitis virus. The settings on record: FIPV bound at 4°C 1 h, compound added at 37°C, 24 h.
In data set [15] the test system is Coxsackievirus B3. Set-up: method as in PMID 24963331. The following applies: cited from earlier work.
Data set [16] relates to Coxsackievirus B3. Set-up: method as in PMID 24963331. The following applies: in vitro; cited from earlier work.
The subject of data set [17] is CRFK cells. The settings on record: cat, 24 h.
Setting [18] is: post-viral entry, FIPV 50 TCID50/well in CRFK cells, 24-HPI, IPMA.

In brackets after ≈: the same amount, converted by molar mass. Where two headings read alike, the source gives them in different places. Where only a bound is given, the exact number is not on record here.

The EC50 is the concentration giving half of the maximal effect. Broadly, the IC50 is the concentration at which inhibition is half-maximal. Usually inhibition stands for how much of the control response was suppressed. Usually EC90 stands for the concentration at which the effect reaches the 90% level. A lower EC90 goes with an effect from little substance. The term viability denotes a per cent measure of how many cells are alive, often set against a control. High values mean less harm to the cells, low ones more harm to the cells.

For the molecule `O=c1c(-c2ccc(O)cc2)coc2c([C@@H]3O[C@H](CO)[C@@H](O)[C@H](O)[C@H]3O)c(O)ccc12` [Puerarin], the EC50 in the data set on Influenza A virus is 52.1 µM. In the data set “in vitro” (CC50), this molecule returned a CC50 at 24 h of 195 µM.

As for `COc1cc(O)c2c(=O)cc(-c3ccc(O)c(O)c3)oc2c1` [7-methylluteolin], the IC50 in the data set on FIPV 3CL^pro is 28.5 ± 4.2 µM.

In the case of Epicatechin-3-O-gallate, the EC50 in [1] is 4 µM.

As for `O=C(O[C@@H]1Cc2c(O)cc(O)cc2O[C@H]1c1cc(O)c(O)c(O)c1)c1cc(O)c(O)c(O)c1` [Gallocatechin Gallate], the virus reduction in the data set on Enterovirus A71 was 56%. Moreover, the CC50 at 24 h in “in vitro” was more than 200 µM. Also, in data set [2], the EC50 is 3.5 µM.

Consider `COc1ccc(-c2cc(=O)c3c(O)cc(O)c(-c4cc(-c5cc(=O)c6c(O)cc(O)cc6o5)ccc4OC)c3o2)cc1` [Isoginkgetin], for which the inhibition at 10 µM in the data set on FIPV [3] is more than 90%. Moreover, the IC50 with FMDV 3C^pro was 39 µM. Further, the EC50 in data set [4] is 2010 ± 70 nM; in the data set with SARS-CoV-2 it was 22.8 µM; in data set [5], 1930 ± 210 nM; in the data set with FIPV [6], 40.6 ± 1.5 µM; with FIPV [8] (Alphacoronavirus 1, CRFK) it was 4.77 ± 0.09 µM. This molecule came in with a CC10 with CRFK cells [7] of 77.43 ± 2.52 µM. Also, in the data set with FIPV [8] (Alphacoronavirus 1, CRFK), the EC90 turned out to be 28.8 ± 1.46 µM. Further, in the data set on FIPV [8] (Selective index CC50/EC50, post-viral entry, CRFK cells), the selectivity ratio at 24 h was 41.8. The “time of addition of maximal efficiency” value with FIPV [9] (28.82 μM, harvested at 10-HPI, RT-qPCR) is recorded as 2–4 HPI. In the data set with FIPV [9] (added at 0-HPI, 28.82 μM, RT-qPCR at 10-HPI), the “effect on FIPV” value is on record as “major inhibitory effect”. Also, in the data set on FIPV [9] (compound at EC90, harvested at 10-HPI, RT-qPCR), the “time of addition at which FIPV replication is inhibited” value is 0–6 HPI. Also, the CC50 at 24 h in “in vitro” was 199.4 ± 0.33 µM. The molecule also displayed a viability at 24 h, 75 µM in the data set “in vitro” not below 90%. The “decrease of viral titer” value is recorded as 2 log10 TCID50/mL in the data set on FIPV [10] (60 min) and 1.89 log10 TCID50/mL with FIPV [10] (120 min).

The molecule `C[C@@H]1O[C@@H](OC[C@H]2O[C@@H](Oc3c(-c4ccc(O)c(O)c4)oc4cc(O)cc(O)c4c3=O)[C@H](O)[C@@H](O)[C@@H]2O)[C@H](O)[C@H](O)[C@H]1O` [Rutin] yielded a CC50 at 24 h in “in vitro” (CC50) of more than 200 µM.

For `O=C(/C=C/c1ccc(O)cc1)OC[C@H]1O[C@@H](Oc2c(-c3ccc(O)cc3)oc3cc(O)cc(O)c3c2=O)[C@H](O)[C@@H](O)[C@@H]1O` [Tiliroside], in [11], the 50% inhibitory concentration (IC50) is 20 µM. This molecule gave a CC50 at 24 h in “in vitro” of 65.2 µM.

Regarding `COc1ccc([C@@H]2CC(=O)c3c(O)cc(O[C@@H]4O[C@H](CO[C@@H]5O[C@@H](C)[C@H](O)[C@@H](O)[C@H]5O)[C@@H](O)[C@H](O)[C@H]4O)cc3O2)cc1O` [Hesperidin], the viral titer reduction result in the data set on Influenza A virus is listed as “Influenza A virus (in vitro: viral titer reduction at 3 log10 TCID50/0.1 mL)”.

For `O=C(O[C@@H]1Cc2c(O)cc(O)cc2O[C@@H]1c1cc(O)c(O)c(O)c1)c1cc(O)c(O)c(O)c1` [Epigallocatechin gallate], the EC50 in the data set on Zika virus was 21.4 µM. Further, in the data set on SARS-CoV-2 3CL^pro, the IC50 is reported as 7.58 µg/mL (≈ 16.5 µM). Further, the EC50 in the data set with Hepatitis B virus was less than 10 µM. In the data set with CRFK cells [7], this molecule returned a CC10 of 84.98 ± 1.93 µM and a CC50 of 282.2 ± 0.12 µM. Moreover, in the data set on FIPV [8] (post-viral entry, CRFK cells), the “Selective index CC50/EC50” value was found to be 3.57. In the data set on FIPV [8] (setting [18]), the EC50 came out at 79.07 ± 0.01 µM and the EC90 turned out to be 196.5 ± 1.96 µM.

Turning to `O=c1cc(-c2ccc(O)cc2)oc2cc(O)cc(O)c12` [Apigenin], the EC50 in the data set with Influenza A virus was 5 to 20 µM. For the same molecule, the CC50 at 24 h in “in vitro” (CC50) worked out at 22.2 µM.

Consider `O=c1c(O)c(-c2ccc(O)c(O)c2)oc2cc(O)cc(O)c12` [Quercetin], for which the IC50 with SARS-CoV-2 RdRp was 6.9 µM. The molecule further showed a CC50 at 24 h in the data set “in vitro” of more than 200 µM.

Take `CC(C)C[C@H](NC(=O)OCc1ccccc1)C(=O)N[C@@H](C[C@@H]1CCNC1=O)C(O)S(=O)(=O)[O-].[Na+]` (stereo partly drawn) [GC376]: the “cell protection (prophylactic) effect” value in the data set on FIPV [12] is “did not possess the prophylactic and virus attachment effects”. Also, in the data set with FIPV [13], the “effect on FIPV binding (attachment)” value was “did not possess the prophylactic and virus attachment effects”. Also, in the data set with FIPV [14], the “effect on FIPV penetration” value is on record as “inhibited FIPV replication at high concentrations of up to 50 μM”.

`O=c1cc(-c2ccc(O)c(-c3c(O)cc(O)c4c(=O)cc(-c5ccc(O)cc5)oc34)c2)oc2cc(O)cc(O)c12` [Amentoflavone]: the “IC50 (virucidal)” value in the data set with Coxsackievirus B3 [15] was 19 to 41 µg/mL. Besides, the EC50 in data set [1] was 11.1 to 28.2 µM; in the data set with Coxsackievirus B3 [16], 25 µM; in the data set on FIPV [8] (Alphacoronavirus 1, CRFK), 144.1 ± 0.01 µM. In addition, it took 242.9 ± 2.4 µM to reach the 90% level with FIPV [8] (Alphacoronavirus 1, CRFK) (EC90). For the same molecule, in the data set on FIPV [8], the selectivity ratio at 24 h is 1.37. The molecule further showed a CC50 at 24 h in “in vitro” (CC50) of 197 ± 2.29 µM. Besides, the CC10 with CRFK cells [17] turned out to be 155.50 ± 2.19 µM.
